14 compounds from patent publication US9708318B2, “Bicyclic heterocycles as FGFR4 inhibitors” (Incyte Corporation, priority 2015, dated 2017) can be followed below.

One assay deals with FGFR2 (Homo sapiens (Human), UniProt P21802). Description: FGFR Enzymatic Assay (FRET peptide phosphorylation), FGFR2. The assay is classed as biochemical. The protocol: (§1) The inhibitor potency of the exemplified compounds was measured in an enzyme assay that measures peptide phosphorylation using FRET measurements to detect product formation. Inhibitors were serially diluted in DMSO and a volume of 0.5 μL was transferred to the wells of a 384-well plate.
Sequence of FGFR2 (P21802 22-821): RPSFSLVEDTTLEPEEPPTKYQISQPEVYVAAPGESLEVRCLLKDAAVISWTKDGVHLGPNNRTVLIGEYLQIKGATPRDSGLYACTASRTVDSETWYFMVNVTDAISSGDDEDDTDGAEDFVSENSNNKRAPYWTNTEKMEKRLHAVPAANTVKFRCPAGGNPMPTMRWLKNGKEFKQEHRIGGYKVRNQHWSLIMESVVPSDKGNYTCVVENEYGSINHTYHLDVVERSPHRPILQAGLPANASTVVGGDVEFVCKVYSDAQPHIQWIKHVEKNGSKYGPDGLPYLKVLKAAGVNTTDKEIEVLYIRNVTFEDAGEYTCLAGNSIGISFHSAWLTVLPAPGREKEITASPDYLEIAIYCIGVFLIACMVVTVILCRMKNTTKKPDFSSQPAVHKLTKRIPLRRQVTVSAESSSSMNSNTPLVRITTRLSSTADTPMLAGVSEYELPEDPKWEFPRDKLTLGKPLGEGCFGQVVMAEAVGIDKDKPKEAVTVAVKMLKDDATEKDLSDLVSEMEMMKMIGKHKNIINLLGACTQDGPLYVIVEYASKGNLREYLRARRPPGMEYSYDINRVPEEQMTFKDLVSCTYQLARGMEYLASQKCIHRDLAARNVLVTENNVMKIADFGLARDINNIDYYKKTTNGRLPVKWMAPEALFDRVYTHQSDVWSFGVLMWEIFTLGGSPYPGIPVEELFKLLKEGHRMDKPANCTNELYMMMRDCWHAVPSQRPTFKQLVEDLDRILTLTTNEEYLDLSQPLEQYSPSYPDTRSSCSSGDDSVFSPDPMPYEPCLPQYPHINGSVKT
(§2) The enzymes were purchased from Millipore or Invitrogen.
(§3) GraphPad prism3 was used to analyze the data.

The target in the next assay is FGFR3 enzyme (Homo sapiens (Human), UniProt P22607). Description: FGFR Enzymatic Assay (FRET peptide phosphorylation), FGFR3. Format: biochemical. The conditions noted are these: for FGFR1/FGFR3 IC50 ratio / FGFR4/FGFR3 IC50 ratio: FGFR3 selectivity; for IC50: read-out: FGFR3 IC50. As to the method:
as §1, §3

The target in the next assay is FGFR1 (Homo sapiens (Human), UniProt P11362). Description: FGFR Enzymatic Assay (FRET peptide phosphorylation), FGFR1.
Sequence of FGFR1 (P11362 22-822): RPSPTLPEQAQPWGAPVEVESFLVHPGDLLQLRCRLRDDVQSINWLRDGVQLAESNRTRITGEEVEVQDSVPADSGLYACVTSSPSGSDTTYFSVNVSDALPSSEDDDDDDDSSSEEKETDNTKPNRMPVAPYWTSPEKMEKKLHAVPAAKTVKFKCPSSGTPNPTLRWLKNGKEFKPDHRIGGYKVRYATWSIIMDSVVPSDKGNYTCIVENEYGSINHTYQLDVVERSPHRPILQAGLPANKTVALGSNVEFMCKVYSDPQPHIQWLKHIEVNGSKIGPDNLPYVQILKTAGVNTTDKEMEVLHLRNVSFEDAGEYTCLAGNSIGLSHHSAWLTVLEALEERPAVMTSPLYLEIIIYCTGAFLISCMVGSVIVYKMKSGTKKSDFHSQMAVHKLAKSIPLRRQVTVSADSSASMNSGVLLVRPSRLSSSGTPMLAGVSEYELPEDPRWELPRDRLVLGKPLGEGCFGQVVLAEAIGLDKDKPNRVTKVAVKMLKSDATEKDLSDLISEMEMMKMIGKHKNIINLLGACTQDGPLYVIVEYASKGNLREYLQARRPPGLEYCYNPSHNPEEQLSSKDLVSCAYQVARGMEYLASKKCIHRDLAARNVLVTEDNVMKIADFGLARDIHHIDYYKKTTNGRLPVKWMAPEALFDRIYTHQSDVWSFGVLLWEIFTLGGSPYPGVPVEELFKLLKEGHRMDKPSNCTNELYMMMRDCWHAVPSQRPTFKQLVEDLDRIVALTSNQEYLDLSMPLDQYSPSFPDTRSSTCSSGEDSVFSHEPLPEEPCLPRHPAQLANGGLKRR
In the next assay the target is FGFR4 (Homo sapiens (Human), UniProt P22455). The assay is described as follows: FGFR Enzymatic Assay (FRET peptide phosphorylation), FGFR4. The assay is classed as biochemical. The conditions noted are these: for FGFR1/FGFR4 IC50 ratio / FGFR2/FGFR4 IC50 ratio / FGFR3/FGFR4 IC50 ratio: FGFR4 selectivity. As to the method:
as §1, §2, §3

[1] abbreviates: FGFR1 IC50 (nM), pre-incubated for 4 hours.
Setting [2] is: read-out: FGFR1 IC50, pre-incubated for 4 hours.
The mark [3] stands for this setting: pre-incubated for 5 to 10 minutes.
Setting [4] is: FGFR1 IC50 (nM), pre-incubated for 5 to 10 minutes.
The mark [5] stands for this setting: read-out: FGFR1 IC50, pre-incubated for 5 to 10 minutes.

SMILES strings stand for the structures. Where two headings read alike, the source gives them in different places.

Sequence of FGFR4 (P22455 22-802): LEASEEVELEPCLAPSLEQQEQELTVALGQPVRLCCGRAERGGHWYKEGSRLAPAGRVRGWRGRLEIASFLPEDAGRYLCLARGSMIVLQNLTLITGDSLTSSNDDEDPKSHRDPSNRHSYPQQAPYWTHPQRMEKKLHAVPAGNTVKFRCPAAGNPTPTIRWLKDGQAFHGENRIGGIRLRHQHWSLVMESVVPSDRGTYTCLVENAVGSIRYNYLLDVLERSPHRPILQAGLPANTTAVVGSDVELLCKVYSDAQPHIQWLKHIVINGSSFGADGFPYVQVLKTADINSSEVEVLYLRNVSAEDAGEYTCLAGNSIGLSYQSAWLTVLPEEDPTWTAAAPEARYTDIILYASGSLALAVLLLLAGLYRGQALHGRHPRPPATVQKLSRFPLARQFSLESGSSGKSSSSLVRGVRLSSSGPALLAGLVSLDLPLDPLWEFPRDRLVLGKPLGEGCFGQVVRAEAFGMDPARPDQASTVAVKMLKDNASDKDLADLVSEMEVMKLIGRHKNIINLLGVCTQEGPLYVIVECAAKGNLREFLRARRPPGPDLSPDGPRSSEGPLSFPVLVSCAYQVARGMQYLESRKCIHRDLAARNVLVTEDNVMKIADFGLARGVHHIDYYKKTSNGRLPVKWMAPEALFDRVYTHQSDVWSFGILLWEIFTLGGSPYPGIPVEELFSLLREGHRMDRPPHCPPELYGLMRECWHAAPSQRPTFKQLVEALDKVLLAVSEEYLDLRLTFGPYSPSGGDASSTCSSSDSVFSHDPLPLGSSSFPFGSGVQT
Sequence of FGFR3 enzyme (P22607 23-806): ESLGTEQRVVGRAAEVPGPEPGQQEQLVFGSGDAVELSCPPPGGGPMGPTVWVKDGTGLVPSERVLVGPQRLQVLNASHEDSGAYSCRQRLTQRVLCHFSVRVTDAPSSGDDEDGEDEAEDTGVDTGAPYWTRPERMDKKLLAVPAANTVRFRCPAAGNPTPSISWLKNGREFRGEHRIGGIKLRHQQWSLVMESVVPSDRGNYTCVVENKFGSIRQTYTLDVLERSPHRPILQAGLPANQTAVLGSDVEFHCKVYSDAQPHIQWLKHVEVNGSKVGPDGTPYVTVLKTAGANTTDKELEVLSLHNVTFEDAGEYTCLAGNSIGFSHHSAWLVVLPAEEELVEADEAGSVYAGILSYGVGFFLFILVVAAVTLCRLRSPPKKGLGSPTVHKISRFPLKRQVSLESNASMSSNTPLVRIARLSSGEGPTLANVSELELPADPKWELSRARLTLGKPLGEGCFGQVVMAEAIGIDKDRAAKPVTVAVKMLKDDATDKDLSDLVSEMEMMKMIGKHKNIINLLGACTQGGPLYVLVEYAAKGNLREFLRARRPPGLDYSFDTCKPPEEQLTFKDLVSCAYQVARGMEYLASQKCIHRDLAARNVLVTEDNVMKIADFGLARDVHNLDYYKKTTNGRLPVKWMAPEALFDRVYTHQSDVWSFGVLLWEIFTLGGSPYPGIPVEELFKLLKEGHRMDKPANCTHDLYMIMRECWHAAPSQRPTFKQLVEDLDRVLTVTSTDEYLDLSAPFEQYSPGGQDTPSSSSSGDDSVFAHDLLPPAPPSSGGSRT

Usually IC50 stands for the concentration that inhibits the measured activity by half. As to `CNC(=O)c1ccc(CN2C(=O)N(c3c(F)c(OC)cc(OC)c3F)Cc3cnc(-c4cn(C)nc4C)cc32)cc1` [Example 62, 4-((3-(2,6-difluoro-3,5-dimethoxyphenyl)-7-(1,3-dimethyl-1H-pyrazol-4-yl)-2-oxo-3,4-dihydropyrido[4,3-d]pyrimidin-1(2H)-yl)methyl)-N-methylbenzamide], the IC50 is 10 to 30 nM against FGFR2 (pre-incubated for 4 hours), less than 10 nM on FGFR3 enzyme (pre-incubated for 4 hours), 30 to 200 nM at FGFR1 (setting [1]) and 30 to 200 nM against FGFR4 (pre-incubated for 4 hours). Further, the “FGFR1/FGFR3 IC50 ratio” value at FGFR3 enzyme (pre-incubated for 4 hours) is greater than 10. Besides, the “FGFR4/FGFR3 IC50 ratio” value at FGFR3 enzyme (pre-incubated for 4 hours) is greater than 5.
For `COc1cc(OC)c(F)c(N2Cc3cnc(-c4cn(C)nc4C)cc3N(c3ncccn3)C2=O)c1F` [Example 105, 3-(2,6-difluoro-3,5-dimethoxyphenyl)-7-(1,3-dimethyl-1H-pyrazol-4-yl)-1-(pyrimidin-2-yl)-3,4-dihydropyrido[4,3-d]pyrimidin-2(1H)-one], the IC50 against FGFR2 (pre-incubated for 4 hours) is 10 to 30 nM; on FGFR3 enzyme (pre-incubated for 4 hours) it was 10 to 30 nM; on FGFR1 (setting [1]) it was 30 to 200 nM; against FGFR4 (pre-incubated for 4 hours) it was 30 to 200 nM. Besides, the “FGFR1/FGFR3 IC50 ratio” value at FGFR3 enzyme (pre-incubated for 4 hours) is greater than 3. In addition, the “FGFR4/FGFR3 IC50 ratio” value on FGFR3 enzyme (pre-incubated for 4 hours) is reported as greater than 5.
As to `COc1cc(OC)c(F)c(N2Cc3cnc(-c4cn(C)nc4C)cc3N(c3ccc(-c4nnc(C)o4)cc3)C2=O)c1F` [Example 115, 3-(2,6-difluoro-3,5-dimethoxyphenyl)-7-(1,3-dimethyl-1H-pyrazol-4-yl)-1-(4-(5-methyl-1,3,4-oxadiazol-2-yl)phenyl)-3,4-dihydropyrido[4,3-d]pyrimidin-2(1H)-one], the IC50 is less than 10 nM against FGFR2 (pre-incubated for 4 hours), less than 10 nM at FGFR3 enzyme (pre-incubated for 4 hours), 30 to 200 nM against FGFR1 (setting [1]) and 30 to 200 nM at FGFR4 (pre-incubated for 4 hours). The “FGFR1/FGFR3 IC50 ratio” value at FGFR3 enzyme (pre-incubated for 4 hours) is greater than 3. The “FGFR4/FGFR3 IC50 ratio” value at FGFR3 enzyme (pre-incubated for 4 hours) is listed as greater than 5.
For `CCN1C(=O)N(c2c(F)c(OC)cc(OC)c2F)Cc2cnc(-c3ccc(C(=O)NC4CC4)nc3)cc21` [Example 176, N-cyclopropyl-5-(3-(2,6-difluoro-3,5-dimethoxyphenyl)-1-ethyl-2-oxo-1,2,3,4-tetrahydropyrido[4,3-d]pyrimidin-7-yl)picolinamide], the IC50 against FGFR2 (pre-incubated for 4 hours) is less than 10 nM; at FGFR3 enzyme (pre-incubated for 4 hours) it was less than 10 nM; at FGFR1 (setting [1]) it was 10 to 30 nM; against FGFR4 (pre-incubated for 4 hours), 10 to 30 nM. In addition, the “FGFR1/FGFR3 IC50 ratio” value at FGFR3 enzyme (pre-incubated for 4 hours) was greater than 10. Further, the “FGFR4/FGFR3 IC50 ratio” value on FGFR3 enzyme (pre-incubated for 4 hours) is listed as greater than 5.
In the case of `COc1cc(OC)c(F)c(N2Cc3cnc(-c4cnn(CCN5CCC(OC)C5)c4)cc3C3(CC3)C2=O)c1F` (stereo not drawn) [Example 161, 2′-(2,6-difluoro-3,5-dimethoxyphenyl)-6′-(1-(2-(3-methoxypyrrolidin-1-yl)ethyl)-1H-pyrazol-4-yl)-1′H-spiro[cyclopropane-1,4′-[2,7]naphthyridin]-3′(2′H)-one], the IC50 on FGFR2 (pre-incubated for 4 hours) was less than 10 nM; at FGFR3 enzyme (pre-incubated for 4 hours) it was less than 10 nM; on FGFR1 (setting [1]) it was 10 to 30 nM; at FGFR4 (pre-incubated for 4 hours), 10 to 30 nM. The “FGFR1/FGFR3 IC50 ratio” value at FGFR3 enzyme (pre-incubated for 4 hours) is given as greater than 5. For the same compound, on FGFR3 enzyme (pre-incubated for 4 hours), the “FGFR4/FGFR3 IC50 ratio” value is greater than 3.
For `COc1cc(OC)c(F)c(N2Cc3cnc(-c4nn(CC#N)cc4C#N)cc3C3(CC3)C2=O)c1F` [Example 174, 1-(cyanomethyl)-3-(2′-(2,6-difluoro-3,5-dimethoxyphenyl)-3′-oxo-2′,3′-dihydro-1′H-spiro[cyclopropane-1,4′-[2,7]naphthyridine]-6′-yl)-1H-pyrazole-4-carbonitrile], the IC50 against FGFR2 (pre-incubated for 4 hours) is greater than 200 nM; at FGFR3 enzyme (pre-incubated for 4 hours), greater than 200 nM; at FGFR1 (setting [2]) it was greater than 200 nM; against FGFR4 (pre-incubated for 4 hours), 10 to 30 nM. Besides, the “FGFR1/FGFR4 IC50 ratio” value on FGFR4 (pre-incubated for 4 hours) is recorded as greater than 100. In addition, the “FGFR2/FGFR4 IC50 ratio” value on FGFR4 (pre-incubated for 4 hours) is greater than 10. Besides, the “FGFR3/FGFR4 IC50 ratio” value on FGFR4 (pre-incubated for 4 hours) is greater than 25.
For `CCN1C(=O)N(c2c(F)c(OC)cc(OC)c2F)Cc2cnc(-c3ccc(C4(C#N)CC4)cc3)cc21` [Example 183, 1-(4-(3-(2,6-difluoro-3,5-dimethoxyphenyl)-1-ethyl-2-oxo-1,2,3,4-tetrahydropyrido[4,3-d]pyrimidin-7-yl)phenyl)cyclopropanecarbonitrile], the IC50 against FGFR2 (pre-incubated for 4 hours) was less than 10 nM; at FGFR3 enzyme (pre-incubated for 4 hours), less than 10 nM; against FGFR1 (setting [1]), 10 to 30 nM; against FGFR4 (pre-incubated for 4 hours), 30 to 200 nM. At FGFR3 enzyme (pre-incubated for 4 hours), the “FGFR1/FGFR3 IC50 ratio” value is on record as greater than 3. Further, at FGFR3 enzyme (pre-incubated for 4 hours), the “FGFR4/FGFR3 IC50 ratio” value was greater than 10.
Consider `COc1cc(OC)c(F)c(N2Cc3cnc(-c4ccc(C5(C#N)CCC5)nc4)cc3N(C3CCC3)C2=O)c1F` [Example 136, 1-(5-(1-cyclobutyl-3-(2,6-difluoro-3,5-dimethoxyphenyl)-2-oxo-1,2,3,4-tetrahydropyrido[4,3-d]pyrimidin-7-yl)pyridin-2-yl)cyclobutanecarbonitrile], for which the IC50 lay within 10 to 30 nM on FGFR2 (setting [3]), 10 to 30 nM at FGFR3 enzyme (setting [3]), 30 to 200 nM against FGFR1 (setting [4]) and 30 to 200 nM at FGFR4 (setting [3]).
Regarding `COCCN1C(=O)N(c2c(F)c(OC)cc(OC)c2F)Cc2cnc(-c3ccc(C4(C#N)CCC4)nc3)cc21` [Example 139, 1-(5-(3-(2,6-difluoro-3,5-dimethoxyphenyl)-1-(2-methoxyethyl)-2-oxo-1,2,3,4-tetrahydropyrido[4,3-d]pyrimidin-7-yl)pyridin-2-yl)cyclobutanecarbonitrile], the IC50 at FGFR2 (setting [3]) was less than 10 nM; at FGFR3 enzyme (setting [3]), less than 10 nM; against FGFR1 (setting [4]), 30 to 200 nM; against FGFR4 (setting [3]) it was 30 to 200 nM.
Take `COc1cc(OC)c(F)c(N2Cc3cnc(-c4cncc(Cl)c4)cc3C3(CC3)C2=O)c1F` [Example 11, 6′-(5-chloropyridin-3-yl)-2′-(2,6-difluoro-3,5-dimethoxyphenyl)-1′H-spiro[cyclopropane-1,4′-[2,7]naphthyridin]-3′(2′H)-one]: the IC50 is greater than 200 nM on FGFR2 (setting [3]); greater than 200 nM against FGFR2 (pre-incubated for 4 hours); 30 to 200 nM at FGFR3 enzyme (setting [3]); greater than 200 nM on FGFR3 enzyme (pre-incubated for 4 hours); greater than 200 nM on FGFR1 (setting [5]); greater than 200 nM on FGFR1 (setting [2]). Further, the IC50 against FGFR4 (setting [3]) and at FGFR4 (pre-incubated for 4 hours) was 10 to 30 nM in each case. In addition, the “FGFR1/FGFR3 IC50 ratio” value at FGFR3 enzyme (pre-incubated for 4 hours) is given as greater than 1. Moreover, the “FGFR1/FGFR4 IC50 ratio” value is on record as greater than 50 at FGFR4 (setting [3]) and greater than 25 on FGFR4 (pre-incubated for 4 hours). For the same compound, the “FGFR2/FGFR4 IC50 ratio” value is reported as greater than 20 on FGFR4 (setting [3]) and greater than 25 at FGFR4 (pre-incubated for 4 hours). Also, the “FGFR3/FGFR4 IC50 ratio” value at FGFR4 (setting [3]) is recorded as greater than 25; on FGFR4 (pre-incubated for 4 hours), greater than 10.
On to `COc1cc(OC)c(F)c(N2Cc3cnc(-c4cn(C)nc4C)cc3N(c3ccc(C(=O)N(C)C)cc3)C2=O)c1F` [Example 113, 4-(3-(2,6-difluoro-3,5-dimethoxyphenyl)-7-(1,3-dimethyl-1H-pyrazol-4-yl)-2-oxo-3,4-dihydropyrido[4,3-d]pyrimidin-1(2H)-yl)-N,N-dimethylbenzamide], for which the IC50 against FGFR2 (pre-incubated for 4 hours) was less than 10 nM; on FGFR3 enzyme (pre-incubated for 4 hours) it was 10 to 30 nM; against FGFR1 (setting [1]), 30 to 200 nM; against FGFR4 (pre-incubated for 4 hours), 30 to 200 nM. In addition, the “FGFR1/FGFR3 IC50 ratio” value on FGFR3 enzyme (pre-incubated for 4 hours) is greater than 3. Moreover, the “FGFR4/FGFR3 IC50 ratio” value at FGFR3 enzyme (pre-incubated for 4 hours) is on record as greater than 5.
For `COc1cc(OC)c(F)c(N2Cc3cnc(-c4cnn(CC5CN(S(C)(=O)=O)C5)c4)cc3C3(CC3)C2=O)c1F` [Example 166, 2′-(2,6-difluoro-3,5-dimethoxyphenyl)-6′-(1-((1-(methylsulfonyl)azetidin-3-yl)methyl)-1H-pyrazol-4-yl)-1′H-spiro[cyclopropane-1,4′-[2,7]naphthyridin]-3′(2′H)-one], the IC50 is less than 10 nM against FGFR2 (pre-incubated for 4 hours), less than 10 nM at FGFR3 enzyme (pre-incubated for 4 hours), 10 to 30 nM against FGFR1 (setting [1]) and 10 to 30 nM against FGFR4 (pre-incubated for 4 hours). Moreover, on FGFR3 enzyme (pre-incubated for 4 hours), the “FGFR1/FGFR3 IC50 ratio” value is recorded as greater than 3. In addition, the “FGFR4/FGFR3 IC50 ratio” value on FGFR3 enzyme (pre-incubated for 4 hours) is reported as greater than 3.
For `CCn1cc(CN2C(=O)N(c3c(F)c(OC)cc(OC)c3F)Cc3cnc(-c4cn(C)nc4C)cc32)cn1` [Example 39, 3-(2,6-difluoro-3,5-dimethoxyphenyl)-7-(1,3-dimethyl-1H-pyrazol-4-yl)-1-((1-ethyl-1H-pyrazol-4-yl)methyl)-3,4-dihydropyrido[4,3-d]pyrimidin-2(1H)-one], the concentration for half-maximal inhibition (IC50) was less than 10 nM at FGFR2 (pre-incubated for 4 hours), less than 10 nM on FGFR3 enzyme (pre-incubated for 4 hours), 10 to 30 nM at FGFR1 (setting [1]) and less than 10 nM against FGFR4 (pre-incubated for 4 hours). In addition, the “FGFR1/FGFR3 IC50 ratio” value at FGFR3 enzyme (pre-incubated for 4 hours) is given as greater than 10. Moreover, the “FGFR4/FGFR3 IC50 ratio” value at FGFR3 enzyme (pre-incubated for 4 hours) is recorded as greater than 10.
For the compound `COc1cc(OC)c(F)c(N2Cc3cnc(-c4cc(N)cnc4C)cc3C3(CC3)C2=O)c1F` [Example 7, 6′-(5-amino-2-methylpyridin-3-yl)-2′-(2,6-difluoro-3,5-dimethoxyphenyl)-1′H-spiro[cyclopropane-1,4′-[2,7]naphthyridin]-3′(2′H)-one], the half-maximal inhibitory concentration (IC50) on FGFR2 (setting [3]), against FGFR2 (pre-incubated for 4 hours), on FGFR3 enzyme (setting [3]), on FGFR3 enzyme (pre-incubated for 4 hours), on FGFR1 (setting [5]) and at FGFR1 (setting [2]) was greater than 200 nM each time. The IC50 on FGFR4 (setting [3]) and against FGFR4 (pre-incubated for 4 hours) was 30 to 200 nM throughout. Moreover, the “FGFR1/FGFR3 IC50 ratio” value at FGFR3 enzyme (pre-incubated for 4 hours) is greater than 1. Moreover, the figures for the “FGFR1/FGFR4 IC50 ratio” value at FGFR4 (setting [3]) and at FGFR4 (pre-incubated for 4 hours) were greater than 25 and greater than 50, respectively. Also, the “FGFR2/FGFR4 IC50 ratio” value at FGFR4 (setting [3]) was greater than 10; at FGFR4 (pre-incubated for 4 hours), greater than 25. Moreover, the “FGFR3/FGFR4 IC50 ratio” value was greater than 10 on FGFR4 (setting [3]) and greater than 25 on FGFR4 (pre-incubated for 4 hours).
